Some results are limits rather than exact numbers.

The subject of one series is human Notch 1. Put plainly: Notch-CBF1 Transactivation Assay (Notch 1). Format: cell-based. The settings on record: HeLa cells co-transfected with truncated Notch 1 and CBF1 luciferase reporter; 18 hours incubation. The source says:
(§1) Notch-CBF1 Transactivation Assay
(§2) Table 12 denotes respective DNA quantity for the transfections.
(§3) Duplicates were used for each sample.
In the case of `NC(=O)[C@@H](CCC(F)(F)F)[C@@H](CCC(F)(F)F)C(=O)N[C@H]1CN(c2ccc(F)cc2)c2ccccc2NC1=O` [Example 6, (2R,3S)—N-((3S)-1-(4-Fluorophenyl)-4-oxo-2,3,4,5-tetrahydro-1H-1,5-benzodiazepin-3-yl)-2,3-bis(3,3,3-trifluoropropyl)succinamide], the midpoint of inhibition, the IC50, lay at 13.9 nM.
Take `N#Cc1cccc(N2C[C@H](NC(=O)[C@H](CCC(F)(F)F)[C@H](CCC(F)(F)F)C(N)=O)C(=O)Nc3c(C(F)F)cccc32)c1` [Example 10, (2R,3S)—N-((3S)-1-(3-Cyanophenyl)-6-(difluoromethyl)-4-oxo-2,3,4,5-tetrahydro-1H-1,5-benzodiazepin-3-yl)-2,3-bis(3,3,3-trifluoropropyl)succinamide]: the IC50 is 12 nM.
On the same count and under the same terms, the figure for `NC(=O)[C@@H](CCC(F)(F)F)[C@@H](CCC(F)(F)F)C(=O)N[C@H]1CN(c2ccc(Cl)cc2)c2ccccc2NC1=O` [Example 4, (2R,3S)—N-((3S)-1-(4-Chlorophenyl)-4-oxo-2,3,4,5-tetrahydro-1H-1,5-benzodiazepin-3-yl)-2,3-bis(3,3,3-trifluoropropyl)succinamide] is 17.4 nM; for `N#Cc1ccccc1N1C[C@H](NC(=O)[C@H](CCC(F)(F)F)[C@H](CC2CC2)C(N)=O)C(=O)Nc2c(Cl)cccc21` [Example 26, (2R,3S)—N-((3S)-6-Chloro-1-(2-cyanophenyl)-4-oxo-2,3,4,5-tetrahydro-1H-1,5-benzodiazepin-3-yl)-3-(cyclopropylmethyl)-2-(3,3,3-trifluoropropyl)succinamide] it is 22.5 nM.
`N#Cc1cccc(N2C[C@H](NC(=O)[C@H](CCC(F)(F)F)[C@H](CCC(F)(F)F)C(N)=O)C(=O)Nc3c(Cl)cccc32)c1` [Example 23, (2R,3S)—N-((3S)-6-Chloro-1-(3-cyanophenyl)-4-oxo-2,3,4,5-tetrahydro-1H-1,5-benzodiazepin-3-yl)-2,3-bis(3,3,3-trifluoropropyl)succinamide] gave an IC50 of 11.6 nM.
Still for that read-out and setting: the figure for `N#Cc1cccc(N2C[C@H](NC(=O)[C@H](CCC(F)(F)F)[C@H](CC3CC3)C(N)=O)C(=O)Nc3c(Cl)cccc32)c1` [Example 25, (2R,3S)—N-((3S)-6-Chloro-1-(3-cyanophenyl)-4-oxo-2,3,4,5-tetrahydro-1H-1,5-benzodiazepin-3-yl)-3-(cyclopropylmethyl)-2-(3,3,3-trifluoropropyl)succinamide] is 14.6 nM.
The same measure, in the same setting: in the case of `N#Cc1cccc(N2C[C@H](NC(=O)[C@H](CCC(F)(F)F)[C@H](CCC(F)(F)F)C(N)=O)C(=O)Nc3c(F)cccc32)c1` [Example 17, (2R,3S)—N-((3S)-1-(3-Cyanophenyl)-6-fluoro-4-oxo-2,3,4,5-tetrahydro-1H-1,5-benzodiazepin-3-yl)-2,3-bis(3,3,3-trifluoropropyl)succinamide] it was 17.6 nM.

The test system of a further series is human Notch 3. Put plainly: Notch-CBF1 Transactivation Assay (Notch 3). Format: cell-based. As to conditions: HeLa cells co-transfected with truncated Notch 3 and CBF1 luciferase reporter; 18 hours incubation.
Text: as §1, §2, §3
`N#Cc1ccccc1N1C[C@H](NC(=O)[C@H](CCC(F)(F)F)[C@H](CC2CC2)C(N)=O)C(=O)Nc2c(Cl)cccc21` [Example 26, (2R,3S)—N-((3S)-6-Chloro-1-(2-cyanophenyl)-4-oxo-2,3,4,5-tetrahydro-1H-1,5-benzodiazepin-3-yl)-3-(cyclopropylmethyl)-2-(3,3,3-trifluoropropyl)succinamide] returned an IC50 of 46.2 nM. This counts as double-digit nanomolar.

Test system in a further series: not listed separately
The series can be described thus: Human metabolic stability half-life assay. The settings on record: liver microsomes, pH 7.4, human liver microsomes, 0.5 μM compound, NADPH, 45-minute time course, read-out: HLM t1/2. In kind it is in vitro ADME. The source says:
Metabolic Stability Half-Life Panel
As for `NC(=O)[C@@H](CCC(F)(F)F)[C@@H](CCC(F)(F)F)C(=O)N[C@H]1CN(c2cccc(Cl)c2)c2cccc(Cl)c2NC1=O` [Example 31, (2R,3S)—N-((3S)-6-Chloro-1-(3-chlorophenyl)-4-oxo-2,3,4,5-tetrahydro-1H-1,5-benzodiazepin-3-yl)-2,3-bis(3,3,3-trifluoropropyl)succinamide], the half-life at 0.5 μM was no less than 31 min.
`NC(=O)[C@@H](c1ccccc1)[C@@H](CCC(F)(F)F)C(=O)N[C@H]1CN(c2cccc(C(F)(F)F)n2)c2cccc(Cl)c2NC1=O` [Example 34, (2R,3R)—N-((3S)-6-Chloro-4-oxo-1-(6-(trifluoromethyl)-2-pyridinyl)-2,3,4,5-tetrahydro-1H-1,5-benzodiazepin-3-yl)-3-phenyl-2-(3,3,3-trifluoropropyl)succinamide]: the half-life at 0.5 μM is no less than 31 min.
Same read-out and setting: in the case of `NC(=O)[C@@H](CCC(F)(F)F)[C@@H](CCC(F)(F)F)C(=O)N[C@H]1CN(c2ccccc2)c2ccc(F)cc2NC1=O` [Example 37, (2R,3S)—N-((3S)-7-Fluoro-4-oxo-1-phenyl-2,3,4,5-tetrahydro-1H-1,5-benzodiazepin-3-yl)-2,3-bis(3,3,3-trifluoropropyl)succinamide] it was no less than 31 min.
Still for that read-out and setting: the figure for `NC(=O)[C@@H](CCC(F)(F)F)[C@@H](CCC(F)(F)F)C(=O)N[C@H]1CN(c2cccc(Cl)c2)c2cccc(C3CC3)c2NC1=O` [Example 7, (2R,3S)—N-((3S)-1-(3-Chlorophenyl)-6-cyclopropyl-4-oxo-2,3,4,5-tetrahydro-1H-1,5-benzodiazepin-3-yl)-2,3-bis(3,3,3-trifluoropropyl)succinamide] is no less than 31 min.
On the same count and under the same terms, the figure for `NC(=O)[C@@H](CCC(F)(F)F)[C@@H](CCC(F)(F)F)C(=O)N[C@H]1CN(c2cccc(Cl)c2)c2ccccc2NC1=O` [Example 3, (2R,3S)—N-((3S)-1-(3-Chlorophenyl)-4-oxo-2,3,4,5-tetrahydro-1H-1,5-benzodiazepin-3-yl)-2,3-bis(3,3,3-trifluoropropyl)succinamide] is no less than 31 min; for `NC(=O)[C@@H](CCC(F)(F)F)[C@@H](CCC(F)(F)F)C(=O)N[C@H]1CN(c2cccc(C3CC3)c2)c2cccc(Cl)c2NC1=O` [Example 1, (2R,3S)—N-((3S)-6-Chloro-1-(3-cyclopropylphenyl)-4-oxo-2,3,4,5-tetrahydro-1H-1,5-benzodiazepin-3-yl)-2,3-bis(3,3,3-trifluoropropyl)succinamide] it is no less than 31 min; for `NC(=O)[C@@H](CC1CC1)[C@@H](CCC(F)(F)F)C(=O)N[C@H]1CN(c2cccc(C3CC3)c2)c2cccc(Cl)c2NC1=O` [Example 29, (2R,3S)—N-((3S)-6-Chloro-1-(3-cyclopropylphenyl)-4-oxo-2,3,4,5-tetrahydro-1H-1,5-benzodiazepin-3-yl)-3-(cyclopropylmethyl)-2-(3,3,3-trifluoropropyl)succinamide] it is no less than 31 min.
`N#Cc1ccccc1N1C[C@H](NC(=O)[C@H](CCC(F)(F)F)[C@H](CC2CC2)C(N)=O)C(=O)Nc2c(Cl)cccc21` [Example 26, (2R,3S)—N-((3S)-6-Chloro-1-(2-cyanophenyl)-4-oxo-2,3,4,5-tetrahydro-1H-1,5-benzodiazepin-3-yl)-3-(cyclopropylmethyl)-2-(3,3,3-trifluoropropyl)succinamide]: the half-life at 0.5 μM is no less than 31 min.
As for `NC(=O)[C@@H](CCC(F)(F)F)[C@@H](CCC(F)(F)F)C(=O)N[C@H]1CN(c2cccc(C3CC3)c2)c2ccccc2NC1=O` [Example 5, (2R,3S)—N-((3S)-1-(3-Cyclopropylphenyl)-4-oxo-2,3,4,5-tetrahydro-1H-1,5-benzodiazepin-3-yl)-2,3-bis(3,3,3-trifluoropropyl)succinamide], the half-life at 0.5 μM is no less than 31 min.
The same measure, in the same setting: in the case of `N#Cc1cccc(N2C[C@H](NC(=O)[C@H](CCC(F)(F)F)[C@H](CC3CC3)C(N)=O)C(=O)Nc3c(Cl)cccc32)c1` [Example 25, (2R,3S)—N-((3S)-6-Chloro-1-(3-cyanophenyl)-4-oxo-2,3,4,5-tetrahydro-1H-1,5-benzodiazepin-3-yl)-3-(cyclopropylmethyl)-2-(3,3,3-trifluoropropyl)succinamide] it was no less than 31 min.
Still for that read-out and setting: the figure for `NC(=O)[C@@H](CCC(F)(F)F)[C@@H](CCC(F)(F)F)C(=O)N[C@H]1CN(c2ccccn2)c2cccc(Cl)c2NC1=O` [Example 33, (2R,3S)—N-((3S)-6-Chloro-4-oxo-1-(2-pyridinyl)-2,3,4,5-tetrahydro-1H-1,5-benzodiazepin-3-yl)-2,3-bis(3,3,3-trifluoropropyl)succinamide] is no less than 31 min; for `N#Cc1cc(F)cc(N2C[C@H](NC(=O)[C@H](CCC(F)(F)F)[C@H](CC3CC3)C(N)=O)C(=O)Nc3c(Cl)cccc32)c1` [Example 28, (2R,3S)—N-((3S)-6-Chloro-1-(3-cyano-5-fluorophenyl)-4-oxo-2,3,4,5-tetrahydro-1H-1,5-benzodiazepin-3-yl)-3-(cyclopropylmethyl)-2-(3,3,3-trifluoropropyl)succinamide] it is no less than 31 min.
The same measure, in the same setting: the figure for `NC(=O)[C@@H](CC1CC1)[C@@H](CCC(F)(F)F)C(=O)N[C@H]1CN(c2cccc(C3CC3)c2)c2cccc(F)c2NC1=O` [Example 15, (2R,3S)-3-(Cyclopropylmethyl)-N-((3S)-1-(3-cyclopropylphenyl)-6-fluoro-4-oxo-2,3,4,5-tetrahydro-1H-1,5-benzodiazepin-3-yl)-2-(3,3,3-trifluoropropyl)succinamide] is no less than 31 min.

Broadly, the IC50 is the point on the concentration scale where inhibition reaches its midpoint. A higher IC50 goes with weaker potency.
